Measurements from patent publication US7550478B2, “Tyrosine kinase inhibitors” (Merck & Co. Inc., priority 2006, dated 2009).

Biological target: T1, human c-Met (Homo sapiens, UniProt P08581)
T1 construct: Recombinant GST-tagged cytosolic domains of human c-Met; 6xHis; made in house; host or cells: Sf9 or Sf21 insect cells (baculovirus, Pharmingen vector pGcGHLT-A, B or C)
Experiment: In vitro kinase assay (homogeneous time-resolved tyrosine kinase assay, HTRF) for c-Met
Assay type: biochemical
Conditions: recombinant GST-tagged cytosolic domain of c-Met, 0.2 nM c-Met, 50 μM MgATP, 80 min at room temperature
Excerpt: Recombinant GST-tagged cytosolic domains of human c-Met and other receptor tyrosine kinases including mouse c-Met, human Ron, KDR, IGFR, EGFR, FGFR, Mer, TrkA and Tie2 are used to determine whether the compounds of the instant invention modulate the enzymatic activities of these kinases.
Soluble recombinant GST-tagged cytosolic domains of c-Met and other receptor tyrosine kinases are expressed in a baculovirus system (Pharmingen) according to a protocol recommended by the manufacturer. The c-DNA encoding each cytosolic domain is subcloned into a baculovirus expression vector (pGcGHLT-A, B or C, Pharmingen) containing an in frame 6× histidine tag and a GST tag. […] The protein concentrations of the fusion proteins are determined using Coomassie Plus Protein Assay (Pierce) with BSA as standard.
The kinase activities of c-Met and other kinases are measured using a modified version of the homogeneous time-resolved tyrosine kinase assay described by Park et al. (1999, Anal. Biochem. 269:94-104).
The procedure for determining the potency of a compound to inhibit c-Met kinase comprises the following steps: • 1. […] Read HTRF signals on a Victor reader (PerkinElmer) in HTRF mode after 60 min. • 6. IC50 is determined by fitting the observed relationship between compound concentration and HTRF signal with a 4-parameter logistic equation. […]

T1 sequence (P08581 956-1390 limits assumed): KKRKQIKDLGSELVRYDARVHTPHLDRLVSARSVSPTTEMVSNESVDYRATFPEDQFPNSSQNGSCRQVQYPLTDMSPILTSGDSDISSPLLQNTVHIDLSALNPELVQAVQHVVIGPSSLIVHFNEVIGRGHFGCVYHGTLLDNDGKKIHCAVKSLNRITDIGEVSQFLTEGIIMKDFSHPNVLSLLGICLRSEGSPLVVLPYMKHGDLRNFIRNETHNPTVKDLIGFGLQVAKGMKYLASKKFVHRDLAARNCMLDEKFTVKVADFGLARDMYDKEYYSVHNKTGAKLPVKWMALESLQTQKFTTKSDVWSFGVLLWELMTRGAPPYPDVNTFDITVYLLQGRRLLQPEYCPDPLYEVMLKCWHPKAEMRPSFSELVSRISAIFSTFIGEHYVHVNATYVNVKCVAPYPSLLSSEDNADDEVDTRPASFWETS

O=c1c2cc(-c3ccccc3)cnc2ccc2cccc(Br)c12 [Compound 3, 6-bromo-3-phenyl-5H-benzo[4,5]cyclohepta[1,2-b]pyridin-5-one]
IC50: ≤ 50 µM
